Reference: ChEMBL document CHEMBL3044916, “Attract-and-kill: a new strategy for the management of the potato tuber moths Phthorimaea operculella (Zeller) and Symmetrischema tangolias (Gyen) in potato: laboratory experiments towards optimising pheromone and insecticide concentration” (2010)
Active and inactive are the calls of the source. The calls are words filed in the database; no cut-off is given here.

Experiments:
Phthorimaea operculella [1] = assay: Insecticidal activity against Phthorimaea operculella assessed as mortality at 1.25 g/l after 48 hr; assay type: functional
Phthorimaea operculella [2] = assay: Insecticidal activity against Phthorimaea operculella assessed as mortality at 2.5 g/l after 48 hr; assay type: functional
Phthorimaea operculella [3] = assay: Insecticidal activity against Phthorimaea operculella assessed as mortality at 2.5 g/l after 24 hr; assay type: functional
Phthorimaea operculella [4] = assay: Insecticidal activity against Phthorimaea operculella assessed as mortality at 5 g/l after 24 hr; assay type: functional
Phthorimaea operculella [5] = assay: Insecticidal activity against Phthorimaea operculella assessed as mortality at 5 g/l after 48 hr; assay type: functional
Symmetrischema tangolias [6] = assay: Insecticidal activity against Symmetrischema tangolias assessed as mortality at 0.65 g/l after 48 hr; assay type: functional
Symmetrischema tangolias [7] = assay: Insecticidal activity against Symmetrischema tangolias assessed as mortality at 0.65 g/l after 24 hr; assay type: functional
Symmetrischema tangolias [8] = assay: Insecticidal activity against Symmetrischema tangolias assessed as mortality at 1.25 g/l after 48 hr; assay type: functional
Symmetrischema tangolias [9] = assay: Insecticidal activity against Symmetrischema tangolias assessed as mortality at 1.25 g/l after 24 hr; assay type: functional
Symmetrischema tangolias [10] = assay: Insecticidal activity against Symmetrischema tangolias assessed as mortality at 2.5 g/l after 48 hr; assay type: functional
Symmetrischema tangolias [11] = assay: Insecticidal activity against Symmetrischema tangolias assessed as mortality at 2.5 g/l after 24 hr; assay type: functional
Symmetrischema tangolias [12] = assay: Insecticidal activity against Symmetrischema tangolias assessed as mortality at 5 g/l after 48 hr; assay type: functional
Symmetrischema tangolias [13] = assay: Insecticidal activity against Symmetrischema tangolias assessed as mortality at 5 g/l after 24 hr; assay type: functional
Phthorimaea operculella [14] = assay: Insecticidal activity against Phthorimaea operculella assessed as mortality at 0.35 g/l after 48 hr; assay type: functional
Phthorimaea operculella [15] = assay: Insecticidal activity against Phthorimaea operculella assessed as mortality at 0.35 g/l after 24 hr; assay type: functional
Phthorimaea operculella [16] = assay: Insecticidal activity against Phthorimaea operculella assessed as mortality at 0.65 g/l after 48 hr; assay type: functional
Phthorimaea operculella [17] = assay: Insecticidal activity against Phthorimaea operculella assessed as mortality at 0.65 g/l after 24 hr; assay type: functional
Phthorimaea operculella [18] = assay: Insecticidal activity against Phthorimaea operculella assessed as mortality at 1.25 g/l after 24 hr; assay type: functional
Symmetrischema tangolias [19] = assay: Insecticidal activity against Symmetrischema tangolias assessed as mortality at 5 g/l after 8 days by cage bio assay relative to control; assay type: functional; settings: 192 h
Phthorimaea operculella [20] = assay: Insecticidal activity against Phthorimaea operculella assessed as mortality at 5 g/l after 6 days by cage bio assay relative to control; assay type: functional; settings: 144 h
Symmetrischema tangolias [21] = assay: Insecticidal activity against Symmetrischema tangolias assessed as mortality at 5 g/l after 36 days by cage bio assay relative to control; assay type: functional; settings: 864 h
Phthorimaea operculella [22] = assay: Insecticidal activity against Phthorimaea operculella assessed as mortality at 5 g/l after 36 days by cage bio assay relative to control; assay type: functional; settings: 864 h
Phthorimaea operculella [23] = assay: Insecticidal activity against Phthorimaea operculella assessed as mortality at 5 g/l after 3 days by cage bio assay relative to control; assay type: functional; settings: 72 h
Symmetrischema tangolias [24] = assay: Insecticidal activity against Symmetrischema tangolias assessed as mortality at 5 g/l after 4 days by attract-and-kill assay relative to control; assay type: functional; settings: 96 h
Symmetrischema tangolias [25] = assay: Insecticidal activity against Symmetrischema tangolias assessed as mortality at 5 g/l after 24 hr by attract-and-kill assay relative to control; assay type: functional
Phthorimaea operculella [26] = assay: Insecticidal activity against Phthorimaea operculella assessed as mortality at 5 g/l after 24 hr by attract-and-kill assay relative to control; assay type: functional
Symmetrischema tangolias [27] = assay: Insecticidal activity against Symmetrischema tangolias assessed as mortality at 5 g/l after 24 hr by attract-and-kill assay; assay type: functional, organism-based
Symmetrischema tangolias [28] = assay: Insecticidal activity against Symmetrischema tangolias assessed as mortality at 5 g/l after 3 days by cage bio assay relative to control; assay type: functional; settings: 72 h
Phthorimaea operculella [29] = assay: Insecticidal activity against Phthorimaea operculella assessed as mortality at 5 g/l after 24 hr by attract-and-kill assay; assay type: functional, organism-based
Phthorimaea operculella [30] = assay: Insecticidal activity against Phthorimaea operculella assessed as mortality at 5 g/l after 4 days by attract-and-kill assay relative to control; assay type: functional; settings: 96 h
Symmetrischema tangolias [31] = assay: Insecticidal activity against Symmetrischema tangolias assessed as mortality at 0.35 g/l after 48 hr; assay type: functional
Symmetrischema tangolias [32] = assay: Insecticidal activity against Symmetrischema tangolias assessed as mortality at 0.35 g/l after 24 hr; assay type: functional

CC1(C)C(C=C(Cl)Cl)C1C(=O)OC(C#N)c1ccc(F)c(Oc2ccccc2)c1 (configuration not stated) [CYFLUTHRIN]
mortality at 1250 µg/mL (Phthorimaea operculella [1]): 63.2% | mortality at 2500 µg/mL (Phthorimaea operculella [2]): 63.2% | mortality at 2500 µg/mL (Phthorimaea operculella [3]): 47.4% | mortality at 5000 µg/mL (Phthorimaea operculella [4]): 57.9% | mortality at 5000 µg/mL (Phthorimaea operculella [5]): 84.2% | mortality at 650 µg/mL (Symmetrischema tangolias [6]): 31.6% | mortality at 650 µg/mL (Symmetrischema tangolias [7]): 26.6% | mortality at 1250 µg/mL (Symmetrischema tangolias [8]): 42.2% | mortality at 1250 µg/mL (Symmetrischema tangolias [9]): 15.6% | mortality at 2500 µg/mL (Symmetrischema tangolias [10]): 68.3% | mortality at 2500 µg/mL (Symmetrischema tangolias [11]): 52.7% | mortality at 5000 µg/mL (Symmetrischema tangolias [12]): 77.7% | mortality at 5000 µg/mL (Symmetrischema tangolias [13]): 59.4% | mortality at 350 µg/mL (Phthorimaea operculella [14]): 31.6% | mortality at 350 µg/mL (Phthorimaea operculella [15]): 21.1% | mortality at 650 µg/mL (Phthorimaea operculella [16]): 47.4% | mortality at 650 µg/mL (Phthorimaea operculella [17]): 26.3% | mortality at 1250 µg/mL (Phthorimaea operculella [18]): 38.8% | mortality at 5000 µg/mL (Symmetrischema tangolias [19]): 100% | mortality at 5000 µg/mL (Phthorimaea operculella [20]): 100% | mortality at 5000 µg/mL (Symmetrischema tangolias [21]): 53% | mortality at 5000 µg/mL (Phthorimaea operculella [22]): 44% | mortality at 5000 µg/mL (Phthorimaea operculella [23]): 100% | mortality at 5000 µg/mL (Symmetrischema tangolias [24]): 100% | mortality at 5000 µg/mL (Symmetrischema tangolias [25]): 40% | mortality at 5000 µg/mL (Phthorimaea operculella [26]): 40% | Activity (Symmetrischema tangolias [27]): Active | mortality at 5000 µg/mL (Symmetrischema tangolias [28]): 100% | Activity (Phthorimaea operculella [29]): Active | mortality at 5000 µg/mL (Phthorimaea operculella [30]): 100% | mortality at 350 µg/mL (Symmetrischema tangolias [31]): 22.2% | mortality at 350 µg/mL (Symmetrischema tangolias [32]): 10.5%
